# Source: US20110189310A1, “SMALL MOLECULE MODULATORS OF PRONGF UPTAKE” (priority 2008, published 2011)
# Read-outs that look alike come from different tables or passages of the source.
# Legend:
# Cultured rat SCG neurons = conditions: for effect on proNGF induced neuronal apoptosis (FIG. 1): 10 μM compound, 5 ng/ml proNGF, rat SCG neurons 7 DIV
# Procedure: (A) Neuronal apoptosis was assessed morphologically by DAPI and TuJ1 double staining and (B) quantitated as percentage of SCG neuron apoptosis. […] Error bars represent S.E.M.
# A recent collaborative study assessed the expression and biological actions of proNGF following seizure induced injury to central neurons. […] (A) Neuronal apoptosis was assessed morphologically by DAPI and TuJ1 double staining and (B) quantitated as percentage of SCG neuron apoptosis. […] Error bars represent S.E.M.
# [1] = cited from earlier work
# dopaminergic neurons = conditions: one report; cited from earlier work
# [2] = human, in vivo; cited from earlier work
# [3] = mouse, in vivo; cited from earlier work
# [4] = rat, in vivo, sc, 100 mg/kg
# [5] = in vivo; cited from earlier work
# [6] = human, in vivo, cited from earlier work
# [7] = monkey, in vivo; cited from earlier work
structure (smiles),measurement,setting,value
CC[C@H](C)C(=O)O[C@H]1C[C@@H](C)C=C2C=C[C@H](C)[C@H](CC[C@@H]3C[C@@H](O)CC(=O)O3)[C@H]21 [Lovastatin],"inhibition of apoptosis, dose dependence",Cultured rat SCG neurons,dose dependent inhibition of apoptosis
same,toxicity in SCG neuron assay,Cultured rat SCG neurons,without toxicity
same,toxicity profile in human,[1]; in vivo,excellent toxicity profiles in human
N[C@@H](Cc1ccc(O)c(O)c1)C(=O)O [Levodopa],effect on proNGF induced neuronal apoptosis (FIG. 1),Cultured rat SCG neurons,blockade of proNGF induced neuronal apoptosis
same,"inhibition of apoptosis, dose dependence",Cultured rat SCG neurons; proNGF-induced SCG neuronal cell death,dose dependent inhibition of apoptosis
same,L-dopa concentrations required for toxicity to dopaminergic neurons,dopaminergic neurons,100 to 500 µM
same,toxicity profile in human,[1]; human,excellent toxicity profiles in human
same,CSF level of major metabolite homovanillic acid,[2],0.8 to 1 µM
O=C([O-])CC(O)(CC(=O)[O-])C(=O)[O-].[Li+].[Li+].[Li+] [Lithium Citrate],"inhibition of apoptosis, dose dependence",Cultured rat SCG neurons,dose dependent inhibition of apoptosis
same,effect on proNGF induced neuronal apoptosis (FIG. 1),Cultured rat SCG neurons,blockade of proNGF induced neuronal apoptosis
same,toxicity profile in human,[1]; in vivo,excellent toxicity profiles in human
O=C([O-])[O-].[Li+].[Li+] [Lithium carbonate],clinical toxicity,[3],no clinical toxicity
same,peak serum concentration,[4],3 mM
same,trough serum concentration,[4],300 µM
same,concentration at which efficacy is demonstrated,Cultured rat SCG neurons,10 µM
same,brain concentration relative to serum concentration,[5],approximately half
same,serum concentration,[6]; po,0.6 to 0.8 mmol
same,major toxicities,[6],reversible renal impairment and anemia
same,brain concentration relative to serum concentration,[7],approximately half
